Laboratory results as given in patent US11613552B2, “Pharmaceutical agents, compositions, and methods relating thereto” (Alltech, Inc., priority 2017, dated 2023).

Test system: G6pc
Assay: QRT-PCR of G6pc mRNA in livers of Lepr^db/db mice
Assay type: in vivo, mouse
Details: 25 μg selenium/kg ip daily, 52 days (FIG. 9)
Experimental: Male Lepr^db/db mice (C57BL/6J strain, purchased from The Jackson Laboratory) at 38-days of age were intraperitoneally injected daily with physiological saline ([…]) containing 0.2% DMSO, Compound #50, or Compound #43 (25 μg selenium equivalent of each compound per kilogram body weight, diluted in the sterile physiological saline) for 52 days. After the treatment, livers were collected and subjected RNA analysis.
Total RNA from saline- or selenium compound-treated Lepr^db/db mice was isolated using a Qiagen RNAeasy RNA isolation kit according to the Manufacturer's protocol. Total RNA from cultured cells was isolated using Trizol (Invitrogen) according to the manufacturer's protocol, and then incubated with DNase I to remove any potential contaminating genomic DNA. RNA samples were subjected to real-time PCR (QRT-PCR) analysis using Applied-Bioscience's RT kit and predesigned Taqman probes (Invitrogen), as described previously (Lan et al EMBO J 2003). Data were normalized by Actin B (Actb) mRNA levels in each sample, and are presented as mean±SEM of 3-5 samples.

C[Se]C[C@H]1O[C@@H](n2cnc3c(N)ncnc32)C(OC(C)=O)C1OC(C)=O (stereo partly shown) [Compound #43, Adenosine, 5′-Se-methyl-5′-selino-, 2′,3′-diacetate] was tested, and the “reduction of G6pc mRNA levels in the liver vs saline” value was “about 56%”.
